Results as given in PubChem BioAssay AID248 (DTP/NCI, 2004).
Where “and” joins values, the source holds several entries; their conditions need not be identical. Equal values may be shown once. Inconclusive results and toxic doses are left out. No stated cut-off is given here; in the data, active means T/C of 150% or more; inactive means T/C below 125%.

Test system: L1210 leukemia ip in BDF1 mice, survival T/C
Experiment: NCI In Vivo Anticancer Drug Screen. Data for tumor model L1210 Leukemia (intraperitoneal) in B6D2F1 (BDF1) mice
Details: higher = longer survival
Procedure, shortened: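 Each compound was tested against a transplantable tumor grown in mice. The endpoint was survival, with treated animals benchmarked against vehicle controls as a simple ratio.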

[1] = endpoint: mean survival time, dose: 100.0 mg/kg/injection, schedule: Q01DX009 (ip), vehicle: Klucel (hydroxypropylcellulose) (HPC)
[2] = endpoint: mean survival time, dose: 200.0 mg/kg/injection, schedule: Q01DX009 (ip), vehicle: Klucel (hydroxypropylcellulose) (HPC)
[3] = endpoint: mean survival time, dose: 400.0 mg/kg/injection, schedule: Q01DX009 (ip), vehicle: Klucel (hydroxypropylcellulose) (HPC)
[4] = endpoint: mean survival time, dose: 100.0 mg/kg/injection, schedule: Q04DX003 (ip), vehicle: saline with Tween-80
[5] = endpoint: mean survival time, dose: 100.0 mg/kg/injection, schedule: Q04DX003 (ip), vehicle: saline
[6] = endpoint: mean survival time, dose: 200.0 mg/kg/injection, schedule: Q01DX001 (ip), vehicle: saline
[7] = endpoint: mean survival time, dose: 400.0 mg/kg/injection, schedule: Q01DX001 (ip), vehicle: saline

Measured: T/C

COc1ccc(C(CC(=O)c2ccc(C)cc2)Sc2ccccc2N)cc1 (centres undefined)
inactive: endpoint: mean survival time, dose: 100.0 mg/kg/injection, schedule: Q01DX005 (ip), vehicle: Klucel (hydroxypropylcellulose) (HPC) 108 % of control | [1] 94 % of control | endpoint: mean survival time, dose: 100.0 mg/kg/injection, schedule: Q04DX002 (ip), vehicle: Klucel (hydroxypropylcellulose) (HPC) 98 % of control | endpoint: mean survival time, dose: 200.0 mg/kg/injection, schedule: Q01DX005 (ip), vehicle: Klucel (hydroxypropylcellulose) (HPC) 89 % of control | [2] 97 % of control | endpoint: mean survival time, dose: 200.0 mg/kg/injection, schedule: Q04DX002 (ip), vehicle: Klucel (hydroxypropylcellulose) (HPC) 103 % of control | endpoint: mean survival time, dose: 400.0 mg/kg/injection, schedule: Q01DX005 (ip), vehicle: Klucel (hydroxypropylcellulose) (HPC) 86 % of control | [3] 94 % of control | endpoint: mean survival time, dose: 400.0 mg/kg/injection, schedule: Q04DX002 (ip), vehicle: Klucel (hydroxypropylcellulose) (HPC) 103 % of control

Cc1cc(C)c(S(=O)(=O)O)cc1[N+](=O)[O-]
inactive: [1] 96 % of control | [2] 101 % of control | [3] 98 % of control

CCn1c(=S)[nH]c(/C=N/N(CCO)CCO)c(C)c1=O
inactive: endpoint: mean survival time, dose: 100.0 mg/kg/injection, schedule: Q01DX001 (ip), vehicle: saline with Tween-80 103 % of control | endpoint: mean survival time, dose: 200.0 mg/kg/injection, schedule: Q01DX001 (ip), vehicle: saline with Tween-80 103 % of control | endpoint: mean survival time, dose: 400.0 mg/kg/injection, schedule: Q01DX001 (ip), vehicle: saline with Tween-80 95 % of control

Cc1ccc(S(=O)(=O)OC2CCCCC2c2ccccc2C)cc1 (centres undefined)
inactive: endpoint: mean survival time, dose: 100.0 mg/kg/injection, schedule: Q01DX001 (ip), vehicle: steriod suspending solution 105 % of control | endpoint: mean survival time, dose: 200.0 mg/kg/injection, schedule: Q01DX001 (ip), vehicle: steriod suspending solution 112 % of control | endpoint: mean survival time, dose: 400.0 mg/kg/injection, schedule: Q01DX001 (ip), vehicle: steriod suspending solution 98 % of control

CCCC(C)c1ccccc1O (centres undefined)
inactive: [4] 95 % of control

CC1(C)C2CCC1(C)C(CO)C2 (centres undefined)
inactive: endpoint: mean survival time, dose: 100.0 mg/kg/injection, schedule: Q04DX003 (ip), vehicle: other 100 % of control | endpoint: mean survival time, dose: 200.0 mg/kg/injection, schedule: Q04DX003 (ip), vehicle: other 102 % of control

CCCCCCCC(=O)OCC(=O)[C@]1(O)Cc2c(O)c3c(c(O)c2[C@@H](OC2CC(N)C(O)C(C)O2)C1)C(=O)c1c(OC)cccc1C3=O (some centres undefined)
inactive: endpoint: median survival time, dose: 0.25 mg/kg/injection, schedule: Q03HX024 (ip), vehicle: water 110 % of control | endpoint: median survival time, dose: 1.0 mg/kg/injection, schedule: Q03HX024 (ip), vehicle: water 109 % of control | endpoint: median survival time, dose: 1.0 mg/kg/injection, schedule: Q04DX003 (ip), vehicle: water 115 % of control | endpoint: median survival time, dose: 2.0 mg/kg/injection, schedule: Q03HX008 (ip), vehicle: water 114 % of control | endpoint: median survival time, dose: 2.0 mg/kg/injection, schedule: Q04DX003 (ip), vehicle: water 124 % of control | endpoint: median survival time, dose: 2.5 mg/kg/injection, schedule: Q01DX001 (ip), vehicle: water 121 % of control | endpoint: median survival time, dose: 2.5 mg/kg/injection, schedule: Q08DX002 (ip), vehicle: water 101 % of control | endpoint: median survival time, dose: 4.0 mg/kg/injection, schedule: Q01DX009 (ip), vehicle: water 88 % of control | endpoint: median survival time, dose: 4.0 mg/kg/injection, schedule: Q04DX003 (ip), vehicle: water 111 % of control | endpoint: median survival time, dose: 5.0 mg/kg/injection, schedule: Q08DX002 (ip), vehicle: water 121 % of control | endpoint: median survival time, dose: 10.0 mg/kg/injection, schedule: Q01DX001 (ip), vehicle: water 121 % of control | endpoint: median survival time, dose: 10.0 mg/kg/injection, schedule: Q08DX002 (ip), vehicle: water 121 % of control | endpoint: median survival time, dose: 20.0 mg/kg/injection, schedule: Q08DX002 (ip), vehicle: water 96 % of control

CCCCCCCCCCCCCCCSc1ccc(Br)cc1
inactive: [4] 97 % of control | endpoint: mean survival time, dose: 200.0 mg/kg/injection, schedule: Q04DX003 (ip), vehicle: saline with Tween-80 102 % of control | endpoint: mean survival time, dose: 400.0 mg/kg/injection, schedule: Q04DX003 (ip), vehicle: saline with Tween-80 94 % of control

CC(C)(C)c1cc(CN2CCCCC2)cc(C(C)(C)C)c1O
inactive: endpoint: mean survival time, dose: 12.5 mg/kg/injection, schedule: Q04DX003 (ip), vehicle: Klucel (hydroxypropylcellulose) (HPC) 101 % of control | endpoint: mean survival time, dose: 25.0 mg/kg/injection, schedule: Q04DX003 (ip), vehicle: Klucel (hydroxypropylcellulose) (HPC) 114 % of control | endpoint: mean survival time, dose: 50.0 mg/kg/injection, schedule: Q04DX003 (ip), vehicle: Klucel (hydroxypropylcellulose) (HPC) 97 % of control

CS(=O)(=O)OCCC(=O)N1CCN(C(=O)CCOS(C)(=O)=O)CC1
inactive: endpoint: mean survival time, dose: 6.3 mg/kg/injection, schedule: Q01DX001 (ip), vehicle: carboxymethylcellulose (CMC) 100 % of control and 105 % of control | endpoint: mean survival time, dose: 9.7 mg/kg/injection, schedule: Q01DX Z (ip), vehicle: methylcellulose (MC) 106 % of control | endpoint: mean survival time, dose: 12.5 mg/kg/injection, schedule: Q01DX001 (ip), vehicle: carboxymethylcellulose (CMC) 103 % of control and 122 % of control | endpoint: mean survival time, dose: 14.7 mg/kg/injection, schedule: Q01DX Z (ip), vehicle: methylcellulose (MC) 104 % of control | endpoint: mean survival time, dose: 16.0 mg/kg/injection, schedule: Q01DX002 (ip), vehicle: saline 115 % of control | endpoint: mean survival time, dose: 22.0 mg/kg/injection, schedule: Q01DX Z (ip), vehicle: methylcellulose (MC) 110 % of control and 112 % of control | endpoint: mean survival time, dose: 25.0 mg/kg/injection, schedule: Q01DX001 (ip), vehicle: carboxymethylcellulose (CMC) 112 % of control and 115 % of control | endpoint: mean survival time, dose: 25.0 mg/kg/injection, schedule: Q04DX003 (ip), vehicle: saline 108 % of control | endpoint: mean survival time, dose: 31.0 mg/kg/injection, schedule: Q01DX002 (ip), vehicle: saline 105 % of control and 115 % of control | endpoint: mean survival time, dose: 50.0 mg/kg/injection, schedule: Q01DX001 (ip), vehicle: saline 121 % of control | endpoint: mean survival time, dose: 50.0 mg/kg/injection, schedule: Q04DX003 (ip), vehicle: saline 123 % of control | endpoint: mean survival time, dose: 170.0 mg/kg/injection, schedule: Q01DX Z (ip), vehicle: methylcellulose (MC) 103 % of control and 115 % of control | endpoint: mean survival time, dose: 225.0 mg/kg/injection, schedule: Q01DX Z (ip), vehicle: methylcellulose (MC) 93 % of control
active: endpoint: mean survival time, dose: 31.25 mg/kg/injection, schedule: Q01DX Z (ip), vehicle: methylcellulose (MC) 156 % of control | endpoint: mean survival time, dose: 33.5 mg/kg/injection, schedule: Q01DX Z (ip), vehicle: methylcellulose (MC) 150 % of control | endpoint: mean survival time, dose: 62.5 mg/kg/injection, schedule: Q01DX Z (ip), vehicle: methylcellulose (MC) 176 % of control | endpoint: mean survival time, dose: 75.0 mg/kg/injection, schedule: Q01DX Z (ip), vehicle: methylcellulose (MC) 162 % of control | endpoint: mean survival time, dose: 76.0 mg/kg/injection, schedule: Q01DX Z (ip), vehicle: methylcellulose (MC) 218 % of control | [5] 153 % of control and 195 % of control | [6] 167 % of control | endpoint: mean survival time, dose: 250.0 mg/kg/injection, schedule: Q01DX002 (ip), vehicle: saline 205 % of control and 240 % of control | [7] 213 % of control

Cc1c(CC[n+]2cccc(C(N)=O)c2)[nH]c(=O)[nH]c1=O
inactive: [5] 97 % of control | endpoint: mean survival time, dose: 200.0 mg/kg/injection, schedule: Q04DX003 (ip), vehicle: saline 101 % of control | endpoint: mean survival time, dose: 400.0 mg/kg/injection, schedule: Q04DX003 (ip), vehicle: saline 97 % of control

N#CC(C#N)=Cc1ccc([N+](=O)[O-])o1
inactive: endpoint: mean survival time, dose: 1.56 mg/kg/injection, schedule: Q04DX003 (ip), vehicle: saline 103 % of control | endpoint: mean survival time, dose: 3.12 mg/kg/injection, schedule: Q01DX009 (ip), vehicle: Klucel (hydroxypropylcellulose) (HPC) 103 % of control | endpoint: mean survival time, dose: 3.12 mg/kg/injection, schedule: Q04DX003 (ip), vehicle: saline 92 % of control | endpoint: mean survival time, dose: 6.25 mg/kg/injection, schedule: Q01DX009 (ip), vehicle: Klucel (hydroxypropylcellulose) (HPC) 104 % of control | endpoint: mean survival time, dose: 6.25 mg/kg/injection, schedule: Q04DX003 (ip), vehicle: saline 103 % of control

CCOC(=O)NP(=O)(NC1CCCCC1)NC1CCCCC1
inactive: endpoint: mean survival time, dose: 50.0 mg/kg/injection, schedule: Q01DX001 (ip), vehicle: alcohol 92 % of control | endpoint: mean survival time, dose: 100.0 mg/kg/injection, schedule: Q01DX001 (ip), vehicle: alcohol 96 % of control | endpoint: mean survival time, dose: 200.0 mg/kg/injection, schedule: Q01DX001 (ip), vehicle: alcohol 90 % of control

C#CC1=CCCC1
inactive: endpoint: mean survival time, dose: 100.0 mg/kg/injection, schedule: Q01DX001 (ip), vehicle: saline 95 % of control | [6] 100 % of control | [7] 95 % of control

Cc1ccc(N2C(=O)C=CC2=O)cc1
inactive: endpoint: mean survival time, dose: 100.0 mg/kg/injection, schedule: Q04DX003 (ip), vehicle: acetone 97 % of control | endpoint: mean survival time, dose: 200.0 mg/kg/injection, schedule: Q04DX003 (ip), vehicle: acetone 92 % of control | endpoint: mean survival time, dose: 400.0 mg/kg/injection, schedule: Q04DX003 (ip), vehicle: acetone 86 % of control
